Marks after values point to notes of the source that are not given here.
Tests used:
Human-SGLT2 = target: T1, Human-SGLT2 (Homo sapiens, UniProt P31639); assay: SGLT2 glucose transport test ([14C]-labeled methyl a-D-glucopyranoside uptake); format: cell-based; conditions: cells stably expressing Human-SGLT2; 37° C., 2 hours
T1 sequence (P31639 1-672): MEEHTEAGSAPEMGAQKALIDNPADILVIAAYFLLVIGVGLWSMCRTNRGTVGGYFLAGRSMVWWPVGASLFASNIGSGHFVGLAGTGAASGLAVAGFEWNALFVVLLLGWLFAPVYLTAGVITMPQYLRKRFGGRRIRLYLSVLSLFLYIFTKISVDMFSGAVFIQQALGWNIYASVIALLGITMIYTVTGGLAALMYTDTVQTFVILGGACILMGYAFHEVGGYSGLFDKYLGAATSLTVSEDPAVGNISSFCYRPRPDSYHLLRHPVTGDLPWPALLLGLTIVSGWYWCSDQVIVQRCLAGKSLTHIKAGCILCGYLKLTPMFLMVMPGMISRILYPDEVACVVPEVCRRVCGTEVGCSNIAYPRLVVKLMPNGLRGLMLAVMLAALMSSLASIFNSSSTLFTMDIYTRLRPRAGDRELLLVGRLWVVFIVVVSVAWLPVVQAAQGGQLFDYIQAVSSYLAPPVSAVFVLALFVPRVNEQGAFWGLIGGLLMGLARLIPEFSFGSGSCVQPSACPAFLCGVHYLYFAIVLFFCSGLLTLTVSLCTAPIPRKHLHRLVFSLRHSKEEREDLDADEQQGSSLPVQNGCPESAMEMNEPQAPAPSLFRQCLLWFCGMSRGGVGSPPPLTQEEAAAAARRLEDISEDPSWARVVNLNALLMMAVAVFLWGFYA
Experimental: Biological Activity Experiment 2: SGLT2 Glucose Transport Test.
1. Purpose of the Experiment:
The effect of the compound on the glucose transport activity of SGLT2 transporter was detected by measuring the amount of [^14C]-labeled glucose entering cells with high expression of Human-SGLT2.
The cells stably expressing Human-SGLT2 were constructed by Wuxi AppTec(Shanghai) Co., Ltd. SGLT2 cells were laid in 96-well cell culture plate (Greiner) and cultured overnight in 5% CO2 environment at 37° C.
2.2. SGLT2 Glucose Transport Test.
1) Experimental buffer, including: 10 mM 4-hydroxyethylpiperazineethanesulfonic acid (HEPES), 1.2 mM magnesium chloride (MgCl2), 4.7 mM potassium chloride (KCl), 2.2 mM calcium chloride (CaCl2) and 120 mM sodium chloride (NaCl).
2) Stop buffer, including: 10 mM 4-hydroxyethylpiperazineethanesulfonic acid (HEPES), 1.2 mM magnesium chloride (MgCl2), 4.7 mM potassium chloride (KCl), 2.2 mM calcium chloride (CaCl2), 120 mM sodium chloride (NaCl) and 1 μM LX4211.
3) Compounds were serially diluted in 100% dimethyl sulfoxide (DMSO) starting at 10 uM and make a 5-folds, 8 points serials compound dilutions.
4) 6 μM [^14C]-labeled methyl a-D-lucopyranosid was prepared with the experimental buffer.
5) The cells were treated with 49 uL of the experimental buffer, 1 μL of the gradient diluted compound and 50 μL of the 6 μM [^14C]-labeled methyl a-D-lucopyranosid solution at 37° C. for 2 hours.
6) The solution was sucked out from holes, and the cells were rinsed with the stop buffer for 3 times.
7) The cells were lysed with 50 ul of 10% sodium hydroxide solution, the cell lysate was sucked into a scintillation tube, into which 2 mL scintillation solution was then added.
8) The data were read with an isotope detector Tricarb.
9) The IC50 value of the tested compound was obtained by the calculation formula: log(inhibitor) vs. response—Variable slope, using GraphPad Prism 5.0 software.

db/db mice [1] = assay: Glycosylated hemoglobin (HbA1c) in diabetic db/db mice; format: in vivo; conditions: for HbA1c (%): fasted 6 hours; for Rate of Decline of HbA1c (%): vs. vehicle control group
Experimental: (§1) Experimental Example 4: Study on the In Vivo Pharmacodynamics in Diabetic Db/Db Mice
(§2) During the experiment, the animals were administrated with the corresponding vehicles or drugs according to the group with an administration time of 16:00 and an administration period of 8 weeks.
(§3) The dose was 5 mg/kg from week 1 to week 4; and the dose was 10 mg/kg from week 5 to week 8.
At weeks 4 and 8 of the experiment, the animals fasted for 6 hours, and blood samples were collected to measure glycosylated hemoglobin.
(§4) All of the data were entered into an Excel document and expressed in the form of mean±S.E.M. The differences between groups were compared using graphpad Prism 6 software and one-way analysis of variance (ANOVA). P value of less than 0.05 is considered a significant difference.

db/db mice [2] = assay: Oral glucose tolerance test (OGTT) at week 8 in diabetic db/db mice; format: in vivo; conditions: 5 mg/kg weeks 1-4, 10 mg/kg weeks 5-8, once daily, fasted 6 hours, glucose 2 g/kg, mean±S.E.M.
Experimental: as §1, §2, §3
At the end of the experiment (i.e. the last 3 days of administration), the animals fasted for 6 hours, then were given a single administration of glucose aqueous solution at a dose of 2 g/kg. The time of the glucose administration was recorded as 0 min. Blood glucose levels of the animals were detected at 0 min before the glucose administration, and 15 min, 30 min, 90 min and 120 min after the glucose administration, respectively. The glucose tolerance curve was drawn according to the data of blood glucose levels vs time, and the area under the curve (AUC) was calculated. The administration was given at 16:00.
as §4

db/db mice [3] = assay: Fasting blood glucose in diabetic db/db mice; format: in vivo; conditions: fasted from 10:00, mean±S.E.M.
Experimental: as §1
(§5) The animals were kept in an animal breeding room with strictly controlled environmental conditions after they arrived. The animal breeding room was maintained at a temperature of 20-24° C. and a humidity of 40-70%. The temperature and humidity in the feeding room were monitored in real time by a hygrothermograph, and the temperature and humidity were recorded twice daily (one in the morning and the other in the afternoon). The lighting of the animal feeding room was controlled by an on-off electronic timing system, with lights for 12 hours and dark for 12 hours daily (turned on at 7:00 a.m. and turned off at 19:00 p.m). The mice were raised in separate cages and were given free access to feed (reproductive feed 17053113 for rats and mice, available from Beijing Keao Xieli Feed Co., Ltd.) and water during the experiment.
as §2, §3
(§6) Random and fasting blood glucose levels were measured once a week.
Fasting blood glucose test: The mice fasted from 10:00 a.m., and blood glucose level was firstly measured at 16:00. Then the mice were administered with the drugs, and 2 hours later blood glucose level was measured again, and then feed intake was restored.
as §4

db/db mice [4] = assay: Random blood glucose in diabetic db/db mice; format: in vivo; conditions: mean±S.E.M.
Experimental: as §1, §5, §2, §3, §6
The random blood glucose level was measured at 10:00 a.m.
as §4

[5] = Week 4, 5 mg/kg intragastric once daily
[6] = Week 8, 5 mg/kg weeks 1-4, 10 mg/kg weeks 5-8, once daily
[7] = Week 1, 5 mg/kg intragastric once daily
[8] = Week 2, 5 mg/kg intragastric once daily
[9] = Week 3, 5 mg/kg intragastric once daily
[10] = Week 5, 10 mg/kg intragastric once daily (5 mg/kg weeks 1-4)
[11] = Week 6, 10 mg/kg intragastric once daily (5 mg/kg weeks 1-4)
[12] = Week 7, 10 mg/kg intragastric once daily (5 mg/kg weeks 1-4)
[13] = Week 8, 10 mg/kg intragastric once daily (5 mg/kg weeks 1-4)

Row | Compound | IC50 (Human-SGLT2) [nM] | HbA1c (%) (db/db mice [1]; [5]) | Rate of Decline of HbA1c (%) (db/db mice [1]; [5]) | HbA1c (%) (db/db mice [1]; [6]) | Rate of Decline of HbA1c (%) (db/db mice [1]; [6]) | OGTT blood glucose level AUC0-2 hr (db/db mice [2]) [mmol/L/min] | Fasting blood glucose (db/db mice [3]; [7]) | Fasting blood glucose (db/db mice [3]; [8]) | Fasting blood glucose (db/db mice [3]; [9]) | Fasting blood glucose (db/db mice [3]; [5]) | Fasting blood glucose (db/db mice [3]; [10]) | Fasting blood glucose (db/db mice [3]; [11]) | Fasting blood glucose (db/db mice [3]; [12]) | Fasting blood glucose (db/db mice [3]; [13]) | Random blood glucose (db/db mice [4]; [7]) | Random blood glucose (db/db mice [4]; [8]) | Random blood glucose (db/db mice [4]; [9]) | Random blood glucose (db/db mice [4]; [5]) | Random blood glucose (db/db mice [4]; [10]) | Random blood glucose (db/db mice [4]; [11]) | also measured
1 | CS[C@H]1OC(c2ccc(Cl)c(Cc3ccc(C4=CCC(F)(F)CC4)cc3)c2)[C@H](O)[C@@H](O)[C@@H]1O (stereo partly drawn) [WXD001] | 3.98 |  |  |  |  |  |  |  |  |  |  |  |  |  |  |  |  |  |  |  | 
2 | CS[C@H]1O[C@@H](c2ccc(C)c(Cc3ccc(C4=CCC(F)(F)CC4)cc3)c2)[C@H](O)[C@@H](O)[C@@H]1O [WXD003] | 2.04 | 5.7*** % | −32 | 5.9**** % | −39 | 2810 ± 155 | 14.8 ± 2.34 | 19.9 ± 1.32 | 15.8 ± 1.48 | 14.3 ± 1.29 | 17.4 ± 1.72 | 10.9 ± 1.42 | 11.7 ± 1.30 | 13.0 ± 1.36 | 14.3 ± 2.28 | 15.7 ± 0.88 | 13.6 ± 1.40 | 13.3 ± 0.81 | 14.1 ± 1.28 | 10.1 ± 1.26 | Random blood glucose (db/db mice [4]; [12]): 12.5 ± 1.23; Random blood glucose (db/db mice [4]; [13]): 14.4 ± 1.77
3 | CCc1ccc([C@@H]2O[C@H](SC)[C@@H](O)[C@H](O)[C@H]2O)cc1Cc1ccc(C2=CCC(F)(F)CC2)cc1 [WXD010] | 2.49 | 5.8*** % | −31 | 5.1**** % | −47 | 2120 ± 99.2 | 14.7 ± 2.50 | 14.4 ± 1.47 | 15.8 ± 1.40 | 14.9 ± 1.24 | 15.9 ± 0.79 | 11.0 ± 1.67 | 9.6 ± 0.91 | 8.1 ± 0.51 | 16.7 ± 1.00 | 13.5 ± 2.46 | 14.1 ± 0.97 | 15.4 ± 1.34 | 13.2 ± 1.09 | 10.6 ± 1.48 | Random blood glucose (db/db mice [4]; [12]): 9.8 ± 0.82; Random blood glucose (db/db mice [4]; [13]): 9.2 ± 0.68

From patent US20200331950A1, “SGLTS INHIBITOR AND APPLICATION THEREOF” (SHANDONG DANHONG PHARMACEUTICAL CO., LTD., priority 2018, published 2020)
